Source: US20200048611A1, “ENGINEERED PLATFORM FOR CONNECTED MICROPATTERNED CARDIAC TISSUES” (Wisconsin Alumni Research Foundation, priority 2018, published 2020)

System: patterned hPSC-CMs
Assay: beta-adrenergic stimulation of micropatterned hPSC-CMs with isoproterenol (contraction, digital image correlation)
Format: cell-based, human
Conditions: patterned CMs on 10 kPa PDMS, 1 μM isoproterenol
Text: In this Example, cardiomyocytes were differentiated from the 19-9-11 iPSC line and purified using lactate media. 10 kPa PDMS substrates mimicking the elasticity of the healthy myocardium were made by blending together commercially available Sylgard 184 and 527. […] Statistical analyses were done using one-way ANOVA with post hoc Tukey test.

SMILES: CC(C)NCC(O)c1ccc(O)c(O)c1 (centres unmarked) [isoproterenol]
- rate of contraction: increase in the rate of contraction
- amplitude of contraction (x-displacement) (versus baseline normal contraction): amplitude of contraction also increased from baseline
